Measurements as given in US20230339889A1, “DERIVATIVES OF 2-OXO-N-(4-(PYRIMIDIN-4-YLOXY/THIO)PHENYL)-1,2-DIHYDROPYRIDINE-3-CARBOXAMIDE FOR USE AS PROTEIN KINASE INHIBITORS FOR THERAPY” (AUCENTRA THERAPEUTICS PTY LTD, priority 2020, published 2023).

Legend:
FLT3-ITD = test: ADP Glo Kinase assay; type: biochemical; settings: 1 µM compound
Description: (§1) Inhibition of CDKs and FLT3 were determined using ADP Glo Kinase assays, as previously described in International Patent Publication No WO 2017/020065.

AXL = target: T1, AXL (Homo sapiens, UniProt P30530); test: Filter-binding radiometric kinase activity assay (KinaseProfiler, Eurofins); type: biochemical; settings: 1 µM compound; read-out: % Residual enzymatic activity at 1 µM AXL
T1 construct: purchased Eurofins Discovery (Kinase Profiler service)
T1 sequence (P30530 26-894): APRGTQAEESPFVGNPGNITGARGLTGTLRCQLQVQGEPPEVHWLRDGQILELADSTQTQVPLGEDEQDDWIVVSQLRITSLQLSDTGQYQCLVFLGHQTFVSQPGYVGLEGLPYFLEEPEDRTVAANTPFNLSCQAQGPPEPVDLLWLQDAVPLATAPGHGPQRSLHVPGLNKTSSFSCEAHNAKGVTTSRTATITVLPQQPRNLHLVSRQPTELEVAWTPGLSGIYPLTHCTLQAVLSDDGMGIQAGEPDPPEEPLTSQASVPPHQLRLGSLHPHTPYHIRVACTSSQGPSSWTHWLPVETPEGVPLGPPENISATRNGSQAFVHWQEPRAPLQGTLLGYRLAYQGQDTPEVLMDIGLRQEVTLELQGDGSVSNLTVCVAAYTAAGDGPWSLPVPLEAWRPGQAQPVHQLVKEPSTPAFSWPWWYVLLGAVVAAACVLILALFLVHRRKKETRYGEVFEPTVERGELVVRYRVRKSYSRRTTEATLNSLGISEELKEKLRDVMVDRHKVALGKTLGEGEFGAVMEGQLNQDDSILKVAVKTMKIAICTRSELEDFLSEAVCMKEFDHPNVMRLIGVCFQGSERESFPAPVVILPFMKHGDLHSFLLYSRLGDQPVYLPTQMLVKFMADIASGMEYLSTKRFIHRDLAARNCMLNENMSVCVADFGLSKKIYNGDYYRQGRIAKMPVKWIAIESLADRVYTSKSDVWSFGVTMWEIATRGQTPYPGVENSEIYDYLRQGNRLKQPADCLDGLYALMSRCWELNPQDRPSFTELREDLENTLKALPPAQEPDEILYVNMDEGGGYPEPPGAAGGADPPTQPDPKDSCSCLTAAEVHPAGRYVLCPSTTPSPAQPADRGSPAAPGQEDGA
Description: (§2) Filter-binding radiometric kinase activity assay (Kinase Profiler™) from Eurofins Discovery was used to determine the % of inhibition and/or IC50 values. […] The reaction is initiated by the addition of the Mg/ATP mixture. After incubation for 40 minutes at room temperature, the reaction is stopped by the addition of phosphoric acid to a concentration of 0.5%. 10 µL of the reaction is then spotted onto a P30 filter mat and washed four times for 4 minutes in 0.425% phosphoric acid and once in methanol prior to drying and scintillation counting. The IC50 values were derived by fitting a sigmoidal dose-response curve to a plot of assay readout over inhibitor concentration. All fits were computed with the GraphPad Prism Software (San Diego, CA, United States of America). Ki values were derived from IC5o values using Cheng Prusoff equation (Cheng Y et al., Biochem Pharmacol 22(23):3099-3108, 1973).

TYRO3 = target: T2, TYRO3 (Homo sapiens, UniProt Q06418); test: as above; type: biochemical; settings: 1 µM compound; read-out: % Residual enzymatic activity at 1 µM TYRO3
T2 construct: purchased Eurofins Discovery (Kinase Profiler service)
T2 sequence (Q06418 41-890): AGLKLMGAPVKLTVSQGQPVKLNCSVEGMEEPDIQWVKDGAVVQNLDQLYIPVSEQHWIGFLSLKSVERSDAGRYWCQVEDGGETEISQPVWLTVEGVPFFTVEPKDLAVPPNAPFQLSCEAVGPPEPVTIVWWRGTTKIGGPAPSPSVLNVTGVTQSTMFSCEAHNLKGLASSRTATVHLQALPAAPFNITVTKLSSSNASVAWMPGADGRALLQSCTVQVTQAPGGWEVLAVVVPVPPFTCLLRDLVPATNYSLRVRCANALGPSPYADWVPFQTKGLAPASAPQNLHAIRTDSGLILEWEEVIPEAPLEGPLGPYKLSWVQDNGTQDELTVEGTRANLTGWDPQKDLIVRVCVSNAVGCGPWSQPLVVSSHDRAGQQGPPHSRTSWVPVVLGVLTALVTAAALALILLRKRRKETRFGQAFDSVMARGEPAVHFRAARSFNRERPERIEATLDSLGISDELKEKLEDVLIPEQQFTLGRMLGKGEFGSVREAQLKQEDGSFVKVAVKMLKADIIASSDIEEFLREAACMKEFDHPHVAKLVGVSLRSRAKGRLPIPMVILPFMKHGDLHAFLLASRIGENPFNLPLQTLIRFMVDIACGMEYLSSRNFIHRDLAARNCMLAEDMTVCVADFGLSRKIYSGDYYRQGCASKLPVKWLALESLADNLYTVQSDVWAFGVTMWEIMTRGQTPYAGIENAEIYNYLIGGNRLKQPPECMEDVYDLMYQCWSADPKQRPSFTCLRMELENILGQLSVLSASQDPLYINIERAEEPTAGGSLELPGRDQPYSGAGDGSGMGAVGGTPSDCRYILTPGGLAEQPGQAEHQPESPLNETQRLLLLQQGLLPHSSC
Description: as §2

Mer = target: T3, Mer (Homo sapiens, UniProt Q12866); test: as above; type: biochemical; settings: 1 µM compound; read-out: % Residual enzymatic activity at 1 µM Mer
T3 construct: purchased Eurofins Discovery (Kinase Profiler service)
T3 sequence (Q12866 21-999): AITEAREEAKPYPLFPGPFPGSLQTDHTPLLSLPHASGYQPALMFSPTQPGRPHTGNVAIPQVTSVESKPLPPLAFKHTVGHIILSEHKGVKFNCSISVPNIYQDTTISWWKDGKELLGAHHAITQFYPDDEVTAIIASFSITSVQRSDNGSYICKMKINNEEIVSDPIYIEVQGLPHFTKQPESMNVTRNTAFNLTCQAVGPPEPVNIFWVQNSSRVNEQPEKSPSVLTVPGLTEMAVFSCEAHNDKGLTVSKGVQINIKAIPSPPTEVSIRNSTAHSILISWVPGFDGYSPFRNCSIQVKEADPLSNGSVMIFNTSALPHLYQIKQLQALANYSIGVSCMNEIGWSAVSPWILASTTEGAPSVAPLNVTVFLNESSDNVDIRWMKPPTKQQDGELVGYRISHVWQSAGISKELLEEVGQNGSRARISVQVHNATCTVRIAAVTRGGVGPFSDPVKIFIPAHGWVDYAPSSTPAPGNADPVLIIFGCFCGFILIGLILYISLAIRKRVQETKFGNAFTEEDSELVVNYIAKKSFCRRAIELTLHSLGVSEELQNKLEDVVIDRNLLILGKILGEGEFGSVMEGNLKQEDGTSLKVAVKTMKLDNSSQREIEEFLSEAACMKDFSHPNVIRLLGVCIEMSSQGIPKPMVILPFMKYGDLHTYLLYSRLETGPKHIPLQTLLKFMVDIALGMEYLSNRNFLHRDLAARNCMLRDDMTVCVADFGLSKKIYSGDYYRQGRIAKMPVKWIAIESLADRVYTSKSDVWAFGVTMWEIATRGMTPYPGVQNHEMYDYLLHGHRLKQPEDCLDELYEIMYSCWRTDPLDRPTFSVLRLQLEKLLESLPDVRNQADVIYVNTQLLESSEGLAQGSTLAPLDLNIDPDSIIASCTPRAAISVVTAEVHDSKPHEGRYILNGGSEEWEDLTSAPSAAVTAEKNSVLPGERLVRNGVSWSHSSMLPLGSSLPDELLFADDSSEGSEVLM
Description: as §2

MET = target: T4, MET (Homo sapiens, UniProt P08581); test: as above; type: biochemical; settings: 1 µM compound; read-out: % Residual enzymatic activity at 1 µM MET
T4 construct: purchased Eurofins Discovery (Kinase Profiler service)
T4 sequence (P08581 25-1390): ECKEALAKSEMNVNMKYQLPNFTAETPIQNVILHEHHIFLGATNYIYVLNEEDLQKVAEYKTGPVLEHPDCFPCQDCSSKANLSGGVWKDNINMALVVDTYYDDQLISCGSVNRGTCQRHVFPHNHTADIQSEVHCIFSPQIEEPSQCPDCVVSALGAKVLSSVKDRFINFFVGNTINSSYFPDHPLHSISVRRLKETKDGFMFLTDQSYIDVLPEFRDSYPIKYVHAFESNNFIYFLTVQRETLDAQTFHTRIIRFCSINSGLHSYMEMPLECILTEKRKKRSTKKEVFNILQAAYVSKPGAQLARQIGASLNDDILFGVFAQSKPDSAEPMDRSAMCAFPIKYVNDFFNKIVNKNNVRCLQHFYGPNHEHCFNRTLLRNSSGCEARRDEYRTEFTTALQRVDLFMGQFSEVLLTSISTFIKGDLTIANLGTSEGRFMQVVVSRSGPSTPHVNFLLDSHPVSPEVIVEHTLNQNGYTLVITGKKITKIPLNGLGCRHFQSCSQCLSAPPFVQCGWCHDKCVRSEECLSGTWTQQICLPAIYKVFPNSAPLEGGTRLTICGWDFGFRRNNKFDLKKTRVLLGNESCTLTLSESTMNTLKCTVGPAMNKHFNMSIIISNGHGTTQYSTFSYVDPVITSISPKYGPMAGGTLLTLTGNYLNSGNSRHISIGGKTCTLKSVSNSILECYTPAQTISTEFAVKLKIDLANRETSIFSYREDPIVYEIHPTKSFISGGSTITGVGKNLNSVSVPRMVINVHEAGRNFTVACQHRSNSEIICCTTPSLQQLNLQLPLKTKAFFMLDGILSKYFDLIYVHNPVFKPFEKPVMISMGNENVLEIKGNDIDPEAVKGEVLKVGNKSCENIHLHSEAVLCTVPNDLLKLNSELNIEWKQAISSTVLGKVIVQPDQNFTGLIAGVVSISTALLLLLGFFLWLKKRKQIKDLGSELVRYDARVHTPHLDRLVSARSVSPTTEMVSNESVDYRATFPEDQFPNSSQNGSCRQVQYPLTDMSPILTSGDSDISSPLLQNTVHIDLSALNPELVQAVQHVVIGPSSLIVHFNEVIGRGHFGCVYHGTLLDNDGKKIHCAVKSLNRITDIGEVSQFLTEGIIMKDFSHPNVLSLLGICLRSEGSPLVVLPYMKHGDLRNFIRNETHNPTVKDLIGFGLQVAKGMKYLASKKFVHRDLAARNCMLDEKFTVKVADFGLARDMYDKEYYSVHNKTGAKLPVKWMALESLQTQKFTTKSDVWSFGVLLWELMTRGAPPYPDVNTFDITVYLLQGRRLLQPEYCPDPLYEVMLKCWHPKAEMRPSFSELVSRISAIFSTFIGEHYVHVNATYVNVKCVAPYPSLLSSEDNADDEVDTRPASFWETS
Description: as §2

MV4-11 = test: Proliferation assay (MTT, leukaemia cancer cell line); type: cell-based; settings: Homo sapiens; 1 µM compound, MV4-11 cells
From the text: Compounds from Example 1 were subjected to standard resazurin and MTT assays on solid tumour and leukaemia cancer cell lines, respectively, as previously reported (Wang S et al., J Med Chem 47:1662-1675, 2004 and Diab S et al., CheMedChem 9:962-972, 2014).

CDK2E = CDK2E (Homo sapiens, UniProt P24941); test: ADP Glo Kinase assay; type: biochemical; settings: 1 µM compound; read-out: % Residual enzymatic activity at 1 µM CDK2E
Description: as §1

% Residual enzymatic activity at 1 µM FLT3-ITD (FLT3-ITD)	remaining activity at 1 µM (AXL)	remaining activity at 1 µM (TYRO3)	remaining activity at 1 µM (Mer)	remaining activity at 1 µM (MET)	remaining activity at 1 µM (CDK2E)	Compound	activity at 1 µM (MV4-11)
74%	67%	87%	91%	94%		Nc1ncnc(Oc2ccc(NC(=O)c3cccn(-c4ccc(F)cc4)c3=O)c(F)c2F)c1Cl [Cmpd 13, N-(4-((6-amino-5-chloropyrimidin-4-yl)oxy)-2,3-difluorophenyl)-1-(4-fluorophenyl)-2-oxo-1,2-dihydropyridine-3-carboxamide]	7%
88%	105%	106%	85%	64%		Nc1ncnc(Oc2ccc(NC(=O)c3cccn(-c4ccc(C(F)(F)F)cc4)c3=O)cc2F)c1F [Cmpd 9, N-(4-((6-amino-5-fluoropyrimidin-4-yl)oxy)-3-fluorophenyl)-2-oxo-1-(4-(trifluoromethyl)phenyl)-1,2-dihydropyridine-3-carboxamide]	
22%	3%	3%	30%	5%		Nc1ncnc(Oc2cc(F)c(NC(=O)c3cccn(-c4ccc(F)cc4)c3=O)cc2F)c1Cl [Cmpd 21, N-(4-((6-amino-5-chloropyrimidin-4-yl)oxy)-2,5-difluorophenyl)-1-(4-fluorophenyl)-2-oxo-1,2-dihydropyridine-3-carboxamide]	3%
91%	112%	111%	100%	85%		Nc1ncnc(Oc2ccc(NC(=O)c3cccn(-c4ccc(OC(F)(F)F)cc4)c3=O)cc2F)c1F [Cmpd 8, N-(4-((6-amino-5-fluoropyrimidin-4-yl)oxy)-3-fluorophenyl)-2-oxo-1-(4-(trifluoromethoxy)phenyl)-1,2-dihydropyridine-3-carboxamide]	
	31%	2%	54%	4%	93%	Nc1ncnc(Oc2cc(F)c(NC(=O)c3cccn(-c4ccc(F)cc4)c3=O)cc2F)c1F [Cmpd 20, N-(4-((6-amino-5-fluoropyrimidin-4-yl)oxy)-2,5-difluorophenyl)-1-(4-fluorophenyl)-2-oxo-1,2-dihydropyridine-3-carboxamide]	5%
	69%	50%	92%	68%	90%	Nc1ncnc(Oc2ccc(NC(=O)c3cccn(-c4ccc(F)cc4)c3=O)c(Cl)c2)c1F [Cmpd 38, N-(4-((6-amino-5-fluoropyrimidin-4-yl)oxy)-2-chlorophenyl)-1-(4-fluorophenyl)-2-oxo-1,2-dihydropyridine-3-carboxamide]	43%
	78%	39%	87%	88%	96%	Nc1ncnc(Oc2ccc(NC(=O)c3cccn(-c4ccc(F)cc4)c3=O)c(Cl)c2)c1Cl [Cmpd 37, N-(4-((6-amino-5-chloropyrimidin-4-yl)oxy)-2-chlorophenyl)-1-(4-fluorophenyl)-2-oxo-1,2-dihydropyridine-3-carboxamide]	48%
	50%	69%	103%	91%	97%	Nc1ncnc(Oc2ccc(NC(=O)c3cccn(-c4ccc(Cl)cc4)c3=O)cc2F)c1F [Cmpd 34, N-(4-((6-amino-5-fluoropyrimidin-4-yl)oxy)-3-fluorophenyl)-1-(4-chlorophenyl)-2-oxo-1,2-dihydropyridine-3-carboxamide]	3%
	97%	70%	99%	87%	96%	Nc1ncnc(Nc2ccc(NC(=O)c3cccn(-c4ccc(F)cc4)c3=O)cc2F)c1Cl [Cmpd 36, N-(4-((6-amino-5-chloropyrimidin-4-yl)amino)-3-fluorophenyl)-1-(4-fluorophenyl)-2-oxo-1,2-dihydropyridine-3-carboxamide]	4%
